This series can be described thus: solvent given as SMILES.

On to `Cc1ccccc1-c1c2ccc(=[N+]3CCOCC3)cc-2oc2cc(N3CCCCC3)ccc12`, for which the absorption maximum runs as follows: (in CCO) 560 nm; (in ClCCl) 559 nm.
In the case of `O=C(O)c1ccc(-c2ccc(-c3nc(-c4ccccc4)c4ccccn34)cc2)s1`, the absorption maximum (in CC#N) stood at 362 nm.
On to `COc1cccc(-n2c(-c3ccc(F)cc3)nc(C)c2C)c1`, for which the absorption maximum runs as follows: (in CCCCCC) 284 nm; (in CCCCO) 289 nm; (in CCO) 290 nm; (in CCOC(C)=O) 288 nm; (in ClCCl) 284 nm.
Consider `CN(C)c1cc(-c2ccccc2)cc2ccccc12`, for which the absorption maximum (in ClCCl) stood at 318 nm.
In turn, `CCN(CC)c1ccc(-c2nc3c(nc2-c2ccc([B-](F)(c4c(C)cc(C)cc4C)c4c(C)cc(C)cc4C)cc2)c2ccccc2n3C)cc1` came in with an absorption maximum (in C1CCOC1) of 414.75 nm.
`Cc1cccc(C)c1-c1cc2c(C)c3c4cc5nc6ccc7c8c(C)c9cc(-c%10c(C)cccc%10C)c(-c%10c(C)cccc%10C)cc9c(C)c8c7c6nc5cc4c3c(C)c2cc1-c1c(C)cccc1C` registered an absorption maximum (in ClC(Cl)Cl) of 487 nm.
With `c1ccc(-c2nc(-c3ccccc3)nc(-c3ccc(-n4c5ccccc5c5cc(-c6ccc7oc8ccccc8c7c6)ccc54)cc3)n2)cc1`, for the setting “in Cc1ccccc1”, the absorption maximum turned out to be 370 nm.
Where the note is “in ClCCl”, `CN(C)c1ccc(/C=C/c2ccncn2)cc1` returned an absorption maximum of 393 nm.
`CC(C)(C)c1ccc(-c2cc(-c3ccc(-c4cc(-c5ccc(C(C)(C)C)cc5)c(C#N)s4)s3)sc2C#N)cc1` showed an absorption maximum (in ClCCl) of 392 nm.
`CCN(CC)c1ccc2cc(-c3cn4cc(OC)ccc4n3)c(=O)oc2c1`: the absorption maximum (in ClC(Cl)Cl) was found to be 434 nm.
For the setting “in CC#N”, `COc1ccc(/C=C(\C#N)c2nc(-c3ccc(Cl)cc3)cs2)cc1` gave an absorption maximum of 373 nm.
In turn, `c1ccc2cc3c4c(ccc3cc2c1)-c1cccc2cccc-4c12` yielded an absorption maximum (in CCCCCCC) of 407 nm.
Consider `CCOC(=O)COc1ccc(/C=C/c2c(CC)c(C)c3n2[B-](F)(F)[N+]2=C(c4[nH]c(C)c(CC)c4C)c4ccccc4C2=C3C)cc1`, for which the absorption maximum by setting is: (in C1CCOC1) 675 nm; (in CC#N) 664 nm; (in CCCCCC) 677 nm; (in CO) 666 nm; (in Cc1ccccc1) 682 nm; (in ClCCl) 675 nm.
Take `Cc1ccc(-c2cc(-c3ccccc3)c3c(N)nc(N4CCCC4)c(C#N)c3n2)cc1`: the absorption maximum is 412 nm (in CC#N); 414 nm (in CC(C)=O); 414 nm (in CC(C)O); 414 nm (in CO); 420 nm (in ClC(Cl)Cl); 420 nm (in ClCCl). The absorption maximum (in c1ccccc1) came to 424 nm.
With `CCCCCCCCCCCCCCCCOC(=O)c1ccc(N(c2ccccc2)c2ccccc2)cc1`, the absorption maximum reads like this: (in C1CCCCC1) 334 nm; (in C1CCOC1) 334 nm; (in CC#N) 332 nm; (in CCOC(C)=O) 334 nm; (in ClCCCl) 336 nm; (in c1ccccc1) 334 nm.
Under “in Cc1ccccc1”, `CC1(C)c2ccccc2N(c2ccccc2)c2ccc(-c3ccc(-c4ccc5c(c4)C(C)(C)c4ccccc4N5c4ccccc4)c4nsnc34)cc21` gave an absorption maximum of 475.42 nm.
Compound `O=[N+]([O-])c1ccc([N+]2=CC3=C(O[B-]2(F)F)c2ccccc2SC3)cc1` had an absorption maximum (in ClCCl) of 440 nm.
The compound `COc1cc2c3c4c(c5ccc(C(C)(C)C)cc5c5c(OC)cc(OC)c(c2c(OC)c1OC)c45)=[N+]1C3=Nc2c3c4cc(OC)c(OC)c(OC)c4c4c(OC)cc(OC)c5c6cc(C(C)(C)C)ccc6c(c3c54)n2[B-]1(F)F` returned an absorption maximum (in Cc1ccccc1) of 878 nm.
Take `Cc1ccccc1C1=C2C=CC(=[N+](C)C)C=[C]2[Ge]([CH3])([CH3])[c]2cc(N(C)C)ccc21`: the absorption maximum (in O) is given as 635 nm.
With `Oc1ccccc1`, under “in C1CCCCC1”, the absorption maximum was determined as 265.96 nm.
With `Cc1cc(C)c(B(c2cc3c4c(c(B(c5c(C)cc(C)cc5C)c5c(C)cc(C)cc5C)cc5c4c2CCC5)CCC3)c2c(C)cc(C)cc2C)c(C)c1`, under “in CCCCCC”, the absorption maximum was found to be 420 nm.
`N#Cc1ccc(N)cc1`: the absorption maximum (in C1CCCCC1) was determined as 283 nm; the absorption maximum (in CC#N) is 272.85 nm; the absorption maximum (in CCCCCC) amounted to 260.99 nm; the absorption maximum (in CCO) is given as 276 nm; the absorption maximum (in O) stood at 283 nm; the absorption maximum (in OCC(F)(F)F) amounted to 264 nm.
With `CN(C)c1ccc(/C=C/c2nc3ccccc3s2)cc1`, the absorption maximum (in C1CCCCC1) was 384 nm; the absorption maximum (in C1CCOC1) is 396 nm; the absorption maximum (in C1COCCO1) came to 393 nm; the absorption maximum (in CC#N) is on record as 401 nm; the absorption maximum (in CC(C)O) stood at 394 nm; the absorption maximum (in CCCCCC) is 384 nm. Moreover, the absorption maximum (in CCCCCCC) was 387 nm; the absorption maximum (in CCO) is recorded as 396 nm; the absorption maximum (in CCOC(C)=O) came out at 391 nm; the absorption maximum (in CCOCC) came out at 390 nm; the absorption maximum (in CN(C)C=O) was 402 nm; the absorption maximum (in CO) is 397 nm. In addition, the absorption maximum reads like this: (in CS(C)=O) 405 nm; (in O) 402 nm; (in OCC(O)CO) 409 nm.
`N#Cc1ccc(/C=C2\N=C(c3ccccc3)NC2=O)cc1`: under “in C1COCCO1”, the absorption maximum is reported as 393 nm.
In turn, `c1ccc(-c2cc(-c3ccc4ccc5cccc6ccc3c4c56)ccn2)nc1` showed an absorption maximum (in C1CCOC1) of 344 nm; an absorption maximum (in CC#N) of 342.99 nm; an absorption maximum (in CCC#N) of 342.99 nm; an absorption maximum (in CCCC#N) of 344 nm; an absorption maximum (in CCCCCC) of 342 nm; an absorption maximum (in CCCO) of 342.99 nm. Also, the absorption maximum came to 342.99 nm (in CCO), 342.99 nm (in CO) and 342.99 nm (in Cc1ccccc1).
On to `CN(C)c1ccc(/C=C/c2ccc(-c3nc(C#N)c(C#N)n3C)cc2)cc1`, for which the absorption maximum is, setting by setting: (in C1CCCCC1) 376 nm; (in CC#N) 380 nm; (in CO) 378 nm; (in ClC(Cl)Cl) 383 nm.
As to `Cc1cccc2cc(-c3cc4cccc(C)c4oc3=O)oc12`, the absorption maximum is, setting by setting: (in CC#N) 369 nm; (in CCOC(C)=O) 370 nm; (in CS(C)=O) 373 nm; (in Cc1ccccc1) 376 nm; (in O) 367 nm.
As for `c1ccc(-c2nc3cc4c(cc3n2-c2ccccc2)nc(-c2ccccc2)n4-c2ccccc2)cc1`, for the setting “in CC#N”, the absorption maximum was found to be 330 nm.
Where the note is “in ClC(Cl)Cl”, `CCCCCCn1c2cc(/C=C/c3cccs3)ccc2c2ccc(/C=C/c3cccs3)cc21` displayed an absorption maximum of 408.16 nm.
Take `COc1ccc(C2=[N+]3C(=Nc4c(-c5ccccc5)c(Br)c(-c5ccc(OC)cc5)n4[B-]3(F)F)C(c3ccccc3)=C2Br)cc1`: the absorption maximum came to 679 nm (in ClC(Cl)Cl) and 679 nm (in ClCCl).
`CCNc1cc2oc(=O)c3c(=O)oc4ccccc4c3c2cc1C`: the absorption maximum runs as follows: (in CS(C)=O) 454 nm; (in ClCCl) 441 nm.
On to `COc1cc(C=O)cc(-c2[nH]c(=O)n3c2-c2ccccc2C3=O)c1O`, for which the absorption maximum reads like this: (in CC#N) 390 nm; (in CO) 398 nm; (in ClCCl) 390 nm.
The compound `CC[n+]1nc2cc3c4c(c2c2cc(C)ccc21)CCCN4CCC3` had an absorption maximum (in O) of 500 nm.
On to `CCCCc1cc(-c2cccc(COC)c2)oc1-c1cccc(-c2oc(-c3cccc(COC)c3)cc2CCCC)c1`, for which, under “in ClC(Cl)Cl”, the absorption maximum worked out at 334 nm.
Consider `COc1ccc(/C=C/c2nc3ccccc3o2)cc1`, for which the absorption maximum (in C1CCCCC1) was found to be 330 nm and the absorption maximum (in CO) was determined as 340 nm.
For the compound `O=C1c2ccccc2-c2c(-c3cccc(Cl)c3O)[nH]c(=O)n21`, the absorption maximum is 388 nm (in CC#N), 393 nm (in CO) and 391 nm (in ClCCl).
Consider `Cc1cc(C)c(B(c2c(C)cc(C)cc2C)c2cc3cc(N(C)C)c4ccccc4c3c3c2ccc2ccccc23)c(C)c1`, for which the absorption maximum (in C1CCCCC1) is 430 nm; the absorption maximum (in C1CCOC1) was determined as 431 nm; the absorption maximum (in CC#N) was determined as 429 nm; the absorption maximum (in ClC(Cl)Cl) was found to be 431 nm; the absorption maximum (in c1ccccc1) amounted to 433 nm.
Take `COc1ccc2c(c1)-c1cc3c(cc1[Si]2(c1ccccc1)c1ccccc1)-c1ccccc1[Si]3(c1ccccc1)c1ccccc1`: for the setting “in ClCCl”, the absorption maximum amounted to 334 nm.
Consider `CCN(CC)c1ccc2cc(/C=C/C(=O)/C=C(O)/C=C/c3cc4ccc(N(CC)CC)cc4oc3=O)c(=O)oc2c1`, for which the absorption maximum was 518 nm (in C1CCOC1); 514 nm (in C1COCCO1); 521 nm (in CC#N); 519 nm (in CC(C)=O); 514 nm (in CCOC(C)=O); 527 nm (in CN(C)C=O). For the same compound, the absorption maximum was determined as 540 nm (in CS(C)=O), 518 nm (in Cc1ccccc1), 520 nm (in ClC(Cl)Cl) and 523 nm (in ClCCl).
Compound `Cc1ccc(C2=C(c3ccc(C)cc3)c3cccc4c3c(cc3nc5ccccc5nc34)O2)cc1` yielded an absorption maximum (in ClCCl) of 498 nm.
On to `CCCCCCOc1cc2[nH]c(cc2CCOC)c2nc(ccc3[nH]c(cc3CCOC)c3nc1C(CCOC)=C3)C(CCOC)=C2`, for which, where the note is “in Cc1ccccc1”, the absorption maximum turned out to be 684 nm.
For `CN(C)c1ccc(/C=C/c2nc3cc(Br)ccc3nc2-c2ccccc2)cc1`, the absorption maximum by setting is: (in C1COCCO1) 445 nm; (in CC#N) 448 nm; (in ClCCl) 453 nm.
As for `CCCCn1c2ccc(-c3cccs3)cc2c2c1c1c3ccc(-c4cccs4)cc3n(CCCC)c1c1c3ccc(-c4cccs4)cc3n(CCCC)c21`, the absorption maximum (in C1CCOC1) is 337 nm.
The compound `CC(C)(C)OC(=O)/C=C/C1=CC2=C(c3ccccc3)c3cccn3[B-](F)(F)[N+]2=C1` registered an absorption maximum (in ClCCl) of 538 nm.

The record behind these values is the Deep4Chem optical property database.
